Test results published in patent US20190105367A1, “ANTIMICROBIAL 4-OXOQUINOLIZINES” (Emergent Product Development Gaithersburg Inc., priority 2011, published 2019).
Where two headings read alike, the source gives them in different places.

Assays:
A. baumannii A387 = assay: MIC without and with sub-inhibitory polymyxin B (Example 4); format: cell-based, Acinetobacter baumannii; details: A. baumannii A387
A. baumannii A473 [1] = assay: Preliminary MBC without and with sub-inhibitory polymyxin B (Example 4); format: cell-based, Acinetobacter baumannii; details: for MBC: 2nd experiment
How it was run: (§1)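 Bactericidal endpoint scored visually on plates incubated at 37° C (18-20 hours): the lowest concentration where growth fell about 90% versus the positive control, generally leaving one colony or none.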

A. baumannii A14 [2] = assay: as above; format: cell-based, Acinetobacter baumannii; details: 2nd experiment
How it was run: as §1

A. baumannii A390 [3] = assay: as above; format: cell-based, Acinetobacter baumannii; details: for MBC: 2nd experiment
How it was run: as §1

A. baumannii NCTC 13301 [4] = assay: as above; format: cell-based, Acinetobacter baumannii; details: A. baumannii NCTC 13301, preliminary MBC; for MBC: 2nd experiment
How it was run: as §1

A. baumannii A473 [5] = assay: MIC without and with sub-inhibitory polymyxin B (Example 4); format: cell-based, Acinetobacter baumannii; details: A. baumannii A473
[6] = test system: Acinetobacter sp. (H064200250); assay: Preliminary MBC without and with sub-inhibitory polymyxin B (Example 4); format: cell-based; details: preliminary MBC; for MBC: Acinetobacter spp. H064200250 (OXA51), 2nd experiment
How it was run: as §1

A. baumannii A14 [7] = assay: MIC without and with sub-inhibitory polymyxin B (Example 4); format: cell-based, Acinetobacter baumannii; details: 1st experiment
A. baumannii J2 [8] = assay: Preliminary MBC without and with sub-inhibitory polymyxin B (Example 4); format: cell-based, Acinetobacter baumannii; details: A. baumannii J2, preliminary MBC; for MBC: 2nd experiment
A. baumannii A489 [9] = assay: as above; format: cell-based, Acinetobacter baumannii; details: A. baumannii A489, preliminary MBC; for MBC: 2nd experiment
A. baumannii A14 [10] = assay: MIC without and with sub-inhibitory polymyxin B (Example 4); format: cell-based, Acinetobacter baumannii; details: A. baumannii A14, 2nd experiment
A. baumannii NCTC 13301 [11] = assay: as above; format: cell-based, Acinetobacter baumannii; details: A. baumannii NCTC 13301, 1st experiment
A. baumannii A489 [12] = assay: as above; format: cell-based, Acinetobacter baumannii; details: A. baumannii A489
A. baumannii A472 = assay: Preliminary MBC without and with sub-inhibitory polymyxin B (Example 4); format: cell-based, Acinetobacter baumannii; details: A. baumannii A472, preliminary MBC; for MBC: 2nd experiment
A. baumannii NCTC 13301 [13] = assay: MIC without and with sub-inhibitory polymyxin B (Example 4); format: cell-based, Acinetobacter baumannii; details: A. baumannii NCTC 13301, 2nd experiment
A. baumannii A329 [14] = assay: Preliminary MBC without and with sub-inhibitory polymyxin B (Example 4); format: cell-based, Acinetobacter baumannii; details: for MBC: 2nd experiment
[15] = test system: strains of A. baumannii and one strain of Acinetobacter sp.; assay: MIC with sub-inhibitory concentrations (0.25x MIC) of polymyxin B, panel of Acinetobacter strains (Example 4); format: cell-based
A. baumannii ATCC 19606 [16] = assay: MIC without and with sub-inhibitory polymyxin B (Example 4); format: cell-based, Acinetobacter baumannii
A. baumannii A14 [17] = assay: Preliminary MBC without and with sub-inhibitory polymyxin B (Example 4); format: cell-based, Acinetobacter baumannii; details: A. baumannii A14, preliminary MBC, 1st experiment
A. baumannii ATCC 19606 [18] = assay: as above; format: cell-based, Acinetobacter baumannii; details: for MBC: 2nd experiment
[19] = test system: Acinetobacter sp. (H064200250); assay: MIC without and with sub-inhibitory polymyxin B (Example 4); format: cell-based
A. baumannii J2 [20] = assay: as above; format: cell-based, Acinetobacter baumannii; details: A. baumannii J2
A. baumannii A390 [21] = assay: as above; format: cell-based, Acinetobacter baumannii; details: A. baumannii A390
A. baumannii A329 [22] = assay: as above; format: cell-based, Acinetobacter baumannii; details: A. baumannii A329
[23] = without polymyxin B, 1st experiment
[24] = +[…] polymyxin B, 1st experiment
[25] = Acinetobacter spp. H064200250, without polymyxin B, 1st experiment
[26] = A. baumannii ATCC 19606, +0.06 μg/ml PB, 2nd experiment
[27] = A. baumannii ATCC 19606, +0.06 μg/ml polymyxin B, 1st experiment
[28] = Acinetobacter spp. H064200250 (OXA51), +[…] PB, 2nd experiment

8-[(3S)-3-aminocyclopentyl]-1- cyclopropyl-7-fluoro-9-methyl- 4-oxo-quinolizine-3-carboxylic acid [Compound 10, reference compound]
MIC (A. baumannii A387; +0.06 μg/ml PB, 2nd experiment): 0.5 µg/mL | MIC without PB/MIC + PB (A. baumannii A387; +0.06 μg/ml PB, 2nd experiment): 1 | MIC without PB/MIC + PB (A. baumannii A387; ratio, PB 0.06 μg/ml, 1st experiment): 1 | MIC (A. baumannii A387; without PB, 2nd experiment): 0.5 µg/mL | MIC without PB (A. baumannii A387; [23]): 0.5 µg/mL | MBC (A. baumannii A473 [1]; A. baumannii A473, +0.06 μg/ml PB): 0.5 µg/mL | MBC (A. baumannii A473 [1]; A. baumannii A473, without PB): 1 µg/mL | MBC without PB (A. baumannii A473 [1]; A. baumannii A473, without polymyxin B, 1st experiment): 0.5 µg/mL | MBC (A. baumannii A14 [2]; A. baumannii A14, +0.06 μg/ml PB): 1 µg/mL | MBC (A. baumannii A14 [2]; A. baumannii A14, without PB): 2 µg/mL | MBC (A. baumannii A390 [3]; A. baumannii A390, +0.06 μg/ml PB): 0.5 µg/mL | MBC (A. baumannii A390 [3]; A. baumannii A390, without PB): 1 µg/mL | MBC without PB (A. baumannii A390 [3]; A. baumannii A390, without polymyxin B, 1st experiment): 1 µg/mL | MBC (A. baumannii NCTC 13301 [4]; +[…] PB): 0.5 µg/mL | MBC +[…] PB (A. baumannii NCTC 13301 [4]; [24]): 1.00 µg/mL | MBC (A. baumannii NCTC 13301 [4]; without PB): 2 µg/mL | MBC without PB (A. baumannii NCTC 13301 [4]; [23]): 2 µg/mL | MIC (A. baumannii A473 [5]; +0.06 μg/ml PB, 2nd experiment): 0.5 µg/mL | MIC without PB/MIC + PB (A. baumannii A473 [5]; +0.06 μg/ml PB, 2nd experiment): 0 | MIC without PB (A. baumannii A473 [5]; [23]): 1 µg/mL | MBC ([6]; +[…] PB): 0.5 µg/mL | MBC ([6]; without PB): 1 µg/mL | MBC +[…] PB ([6]; Acinetobacter spp. H064200250, +[…] polymyxin B, 1st experiment): 1 µg/mL | MBC without PB [6, 25]: 0.5 µg/mL | MIC +0.06 μg/ml PB (A. baumannii A14 [7]; +0.06 μg/ml polymyxin B): 8.00 µg/mL | MIC without PB/MIC + PB (A. baumannii A14 [7]; ratio, PB 0.06 μg/ml): 1 | MIC without PB (A. baumannii A14 [7]; without polymyxin B): 8 µg/mL | MBC (A. baumannii J2 [8]; +[…] PB): 0.25 µg/mL | MBC +[…] PB (A. baumannii J2 [8]; [24]): 1 µg/mL | MBC (A. baumannii J2 [8]; without PB): 2 µg/mL | MBC without PB (A. baumannii J2 [8]; [23]): 1 µg/mL | MBC (A. baumannii A489 [9]; +[…] PB): 1 µg/mL | MBC +[…] PB (A. baumannii A489 [9]; [24]): 1.00 µg/mL | MBC (A. baumannii A489 [9]; without PB): 1 µg/mL | MBC without PB (A. baumannii A489 [9]; [23]): 1 µg/mL | MIC (A. baumannii A14 [10]; +0.06 μg/ml PB): 2 µg/mL | MIC without PB/MIC + PB (A. baumannii A14 [10]; +0.06 μg/ml PB): 1 | MIC (A. baumannii A14 [10]; without PB): 2 µg/mL | MIC +[…] PB (A. baumannii NCTC 13301 [11]; +[…] polymyxin B): 1.00 µg/mL | MIC without PB/MIC + PB (A. baumannii NCTC 13301 [11]; ratio, PB […]): 8 | MIC without PB (A. baumannii NCTC 13301 [11]; without polymyxin B): 8 µg/mL | MIC (A. baumannii A489 [12]; +[…] PB, 2nd experiment): 0.5 µg/mL | MIC without PB/MIC + PB (A. baumannii A489 [12]; +[…] PB, 2nd experiment): 2 | MIC +[…] PB (A. baumannii A489 [12]; [24]): 1.00 µg/mL | MIC without PB/MIC + PB (A. baumannii A489 [12]; ratio, PB […], 1st experiment): 1 | MIC (A. baumannii A489 [12]; without PB, 2nd experiment): 1 µg/mL | MIC without PB (A. baumannii A489 [12]; [23]): 1 µg/mL | MBC (A. baumannii A472; +[…] PB): 0.5 µg/mL | MBC +[…] PB (A. baumannii A472; [24]): 0.25 µg/mL | MBC (A. baumannii A472; without PB): 1 µg/mL | MBC without PB (A. baumannii A472; [23]): 1 µg/mL | MIC (A. baumannii NCTC 13301 [13]; +[…] PB): 0.5 µg/mL | MIC without PB/MIC + PB (A. baumannii NCTC 13301 [13]; +[…] PB): 4 | MIC (A. baumannii NCTC 13301 [13]; without PB): 2 µg/mL | MBC (A. baumannii A329 [14]; A. baumannii A329, +0.06 μg/ml PB): 2 µg/mL | MBC (A. baumannii A329 [14]; A. baumannii A329, without PB): 2 µg/mL | MBC without PB (A. baumannii A329 [14]; A. baumannii A329, without polymyxin B, 1st experiment): 2 µg/mL | Change of activity (MIC) in presence of polymyxin B compared to without polymyxin B [15]: less potentiated | Range ratios MIC without PB/MIC with PB Oct. 1, 2008 n = 8 ([15]; 1st experiment): 1-8 | MIC range with PB (0.25x MIC) Oct. 1, 2008 n = 8 ([15]; 1st experiment, […] polymyxin B, ATCC 19606, A329, A390 and A473 not taken): 0.5 to 8 µg/mL | Range ratios MIC without PB/MIC with PB Oct. 14, 2008 n = 11 ([15]; 2nd experiment): 1-8 | MIC range with PB (0.25x MIC) Oct. 14, 2008 n = 11 ([15]; 2nd experiment, 0.06 μg/ml polymyxin B, all strains except the ATCC strain): 0.25 to 2 µg/mL | MIC (A. baumannii ATCC 19606 [16]; [26]): 0.06 µg/mL | MIC without PB/MIC + PB (A. baumannii ATCC 19606 [16]; [26]): 2 | MIC +0.06 μg/ml PB (A. baumannii ATCC 19606 [16]; [27]): 0.03 µg/mL | MIC without PB/MIC + PB (A. baumannii ATCC 19606 [16]; A. baumannii ATCC 19606, ratio, PB 0.06 μg/ml, 1st experiment): 256 | MIC (A. baumannii ATCC 19606 [16]; A. baumannii ATCC 19606, without PB, 2nd experiment): 0.125 µg/mL | MIC (A. baumannii ATCC 19606 [16]; A. baumannii ATCC 19606, without PB, value in parentheses marked *, mark not explained, 2nd experiment): 0.06 µg/mL | Activity against the A. baumannii ATCC 19606 strain (A. baumannii ATCC 19606 [16]; with and without sub-inhibitory concentrations of polymyxin B): potent activities | MBC +0.06 μg/ml PB (A. baumannii A14 [17]; +0.06 μg/ml polymyxin B): 2.00 µg/mL | MBC without PB (A. baumannii A14 [17]; without polymyxin B): 2 µg/mL | MBC (A. baumannii ATCC 19606 [18]; A. baumannii ATCC 19606, +0.06 μg/ml PB): 0.03 µg/mL | MBC +0.06 μg/ml PB (A. baumannii ATCC 19606 [18]; [27]): 0.03 µg/mL | MBC (A. baumannii ATCC 19606 [18]; A. baumannii ATCC 19606, without PB): 0.125 µg/mL | MIC +[…] PB [19]: 1 µg/mL | MIC without PB/MIC + PB [19]: 2 | MIC [19, 28]: 1 µg/mL | MIC without PB/MIC + PB [19, 28]: 1 | MIC ([19]; Acinetobacter spp. H064200250 (OXA51), without PB, 2nd experiment): 1 µg/mL | MIC without PB [19, 25]: 2 µg/mL | MIC (A. baumannii J2 [20]; +[…] PB, 2nd experiment): 0.25 µg/mL | MIC without PB/MIC + PB (A. baumannii J2 [20]; +[…] PB, 2nd experiment): 8 | MIC +[…] PB (A. baumannii J2 [20]; [24]): 1 µg/mL | MIC without PB/MIC + PB (A. baumannii J2 [20]; ratio, PB […], 1st experiment): 2 | MIC (A. baumannii J2 [20]; without PB, 2nd experiment): 2 µg/mL | MIC without PB (A. baumannii J2 [20]; [23]): 2 µg/mL | MIC (A. baumannii A390 [21]; +0.06 μg/ml PB, 2nd experiment): 0.5 µg/mL | MIC without PB/MIC + PB (A. baumannii A390 [21]; +0.06 μg/ml PB, 2nd experiment): 2 | MIC (A. baumannii A390 [21]; without PB, 2nd experiment): 1 µg/mL | MIC without PB (A. baumannii A390 [21]; [23]): 1 µg/mL | MIC (A. baumannii A329 [22]; +0.06 μg/ml PB, 2nd experiment): 1 µg/mL | MIC without PB/MIC + PB (A. baumannii A329 [22]; +0.06 μg/ml PB, 2nd experiment): 2 | MIC read with alamar blue (A. baumannii A329 [22]; +0.06 μg/ml PB, value in parentheses, 2nd experiment): 2 µg/mL | MIC (A. baumannii A329 [22]; without PB, 2nd experiment): 2 µg/mL | MIC without PB (A. baumannii A329 [22]; [23]): 8 µg/mL
